According to PMC9785777, “Antidiabetic Potential of Novel 1,3,5-Trisubstituted-2-Thioxoimidazloidin-4-One Analogues: Insights into α-Glucosidase, α-Amylase, and Antioxidant Activities” (Pharmaceuticals, 2022):

Legend:
[1] = target: T1, α-glucosidase enzyme (EC3.2.1.20) (Saccharomyces cerevisiae, UniProt P53341); experiment: biochemical; settings: for inhibition at 1 µg/mL / inhibition at 10 µg/mL / inhibition at 100 µg/mL / inhibition at 1000 µg/mL: read-out: % inhibition of α-glucosidase
T1 construct: purchased Sigma-Aldrich
T1 sequence (P53341 whole entry): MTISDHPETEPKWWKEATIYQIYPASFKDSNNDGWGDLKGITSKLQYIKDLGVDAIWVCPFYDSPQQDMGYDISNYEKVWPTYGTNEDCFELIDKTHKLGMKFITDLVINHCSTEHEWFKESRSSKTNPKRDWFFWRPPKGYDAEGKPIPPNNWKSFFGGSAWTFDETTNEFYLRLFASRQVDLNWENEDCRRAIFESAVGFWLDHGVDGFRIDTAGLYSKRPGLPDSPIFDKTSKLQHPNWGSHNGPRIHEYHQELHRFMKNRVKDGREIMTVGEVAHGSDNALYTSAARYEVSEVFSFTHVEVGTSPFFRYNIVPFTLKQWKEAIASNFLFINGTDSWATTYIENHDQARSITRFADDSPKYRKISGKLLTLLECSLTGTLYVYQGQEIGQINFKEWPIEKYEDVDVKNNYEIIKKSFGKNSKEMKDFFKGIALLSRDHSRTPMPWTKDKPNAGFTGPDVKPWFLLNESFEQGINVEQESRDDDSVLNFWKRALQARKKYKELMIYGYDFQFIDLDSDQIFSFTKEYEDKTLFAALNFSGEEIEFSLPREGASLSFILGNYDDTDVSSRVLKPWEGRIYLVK
Excerpt: The α-glucosidase enzyme is mainly expressed in the small intestine and catalyzes the breakdown of carbohydrates into glucose units by cleaving the glucosidic bonds. α-Glucosidase blockers are the first-line drugs for the treatment of non-insulin-dependent DM by suppressing carbohydrate hydrolysis and consequently retarding glucose absorption into the bloodstream and reducing postprandial hyperglycemia. α-Glucosidase is, thus, considered to be an attractive pharmaceutical target for the treatment of […] via control of the blood glucose levels. Accordingly, there is a continuous need to develop a potential class of α-glucosidase inhibitors. Toward this aim, we explored the potency of the synthesized compounds to inhibit the activity of α-glucosidase. We examined the inhibitory activity of the synthesized compounds following the reported assay by Peytam et al.. Thus, the compounds at different concentrations (1000, 100, 10, and 1 µg/mL) were incubated with α-glucosidase and subsequently […] was added and the absorbance was monitored at 405 nm. […] To further investigate the structural aspects of 1,3-thiohydantoin scaffold, a substitution at the N1-position with the methyl-proponate group was performed. […] Nevertheless, it has adverse gastrointestinal effects including diarrhea and flatulence. Thus, the discovery of a novel class of potent antidiabetic agents is urgently demanded.
An ELISA reader was used to assess the inhibition of α-glucosidase by 1,3,5-trisubstituted-2-thioxoimidazolidin-4-ones derivatives at various doses (1000, 100, 10, and 1 µg/mL) according to Peytam et al.. […] Then, the substrate (25 µL, 4 mM) was added to the mentioned mixture and allowed to incubate at 37 °C for 20 min. Finally, the change in absorbance at 405 nm was monitored using a Cytation 3 hybrid microplate reader (BioTek, Winooski, VT, USA). […] GraphPad prism 6.0 was used to calculate the IC50 values of the investigated compounds from the nonlinear regression curve (Systat Software, Inc. Tools for Science) (https://www.graphpad.com/scientific-software/prism/ (accessed on 1 September 2022)).

[2] = test system: human lung fibroblast WI-38 cell line; experiment: MTT cytotoxicity assay against WI-38 cells; type: cell-based; settings: MTT, 48 h
Experimental: Based on the promising dual inhibitory activity of this class of compounds, we next evaluated the cytotoxicity of compounds 5a and 7a against human lung fibroblast cell line WI-38 in order to gain insights into the toxicity of this class of compounds utilizing the MTT assay. In this regard, lung fibroblast cells were cultured and treated with compounds 5a and 7a for 48 h at different concentrations (1000, 250, 63, 16, and 4 µg/mL). After the cells were washed, they were treated with MTT solution and the absorption was assessed using an ELISA reader at 570 nm. As a pharmacological reference drug, Celecoxib, a well-known anti-inflammatory agent, was utilized.
The cytotoxicity of compounds 5a and 7a was assessed toward the human lung fibroblast WI-38 cell line (Sigma-Aldrich, St. Louis, MO, USA, product number 90020107) using MTT assay. The MTT test assay was performed in accordance with the previously stated procedure. MTT (3-(4,5-dimethylthiazol-2-yl)-2,5-diphenyl tetrazolium bromide; Sigma catalog no. M2128) was dissolved in PBS at 5 mg/mL and processed to eliminate the insoluble residues. Briefly, cells (10^5 cells/well) were treated for 48 h at 37 °C with compounds 5a and 7a at varied doses (1000, 250, 63, 16, and 4 µg/mL, DMSO stock solutions) in a 5% CO2 atmosphere. In our assessment, celecoxib, an inhibitor of cyclooxygenase 2, was employed as a standard reference drug. Following cell washing, MTT solution (180 µL/well) was applied to the cells and incubated at 37 °C for 4 h with shaking, and the absorbance was measured using an ELISA reader at 570 nm.

## COC(=O)CCN1C(=S)N(N=C(C)c2ccccc2O)C(=O)C1=Cc1ccccc1O [Compound 5a, Methyl [5-(2-hydroxybenzylidene)-4-oxo-3-(2-hydroxyphenylethylidene)amino-2-thioxoimidazolidin-1-yl] propionate]
[1]
  IC50: 11.6 µM
  inhibition at 1 µg/mL: 35%
  inhibition at 10 µg/mL: 58%
  inhibition at 100 µg/mL: 75%
  inhibition at 1000 µg/mL: 86%
[2]
  WI-38 cytotoxicity IC50: 88.538 µg/mL

## COC(=O)CCN1C(=S)N(N=C(C)c2ccccc2O)C(=O)C1=Cc1ccccc1OC(C)=O [Compound 7a, Methyl [5-(2-acetoxybenzylidene)-4-oxo-3-(2-hydroxyphenylethylidene)amino-2-thioxoimidazolidin-1-yl] propionate]
[1]
  IC50: 38.2 µM
  inhibition at 1 µg/mL: 21.8%
  inhibition at 10 µg/mL: 48.3%
  inhibition at 100 µg/mL: 66.1%
  inhibition at 1000 µg/mL: 82.6%
